Where two headings read alike, the source gives them in different places.
Tested on: Leishmania promastigotes
Experiment: Testing of agents against Leishmania species in parasite culture medium (anti-leishmanial activity)
Format: cell-based
Conditions: for IC50: read-out: concentrations effective at the IC50 level; for effectiveness compared with trifluralin: comparison with trifluralin
Text: […]-3,5-dinitrobenzotrifluoride (compound 1), 4-chloro-3-nitrobenzotrifluoride (compound 4), 3-amino-4-chlorobenzotrifluoride (compound 5), 2-bromo-3,5(bis(trifluoromethyl)aniline (compound 6), 4-methoxy-3-nitrobenzotrifluoride (compound 7), and 2-nitro-4-(trifluoromethyl)thiophenol (compound 8) were obtained from Aldrich Chemical Company and were used to without further purification. Trifluralin was obtained from Reidel de Haen and was used without further purification. 4-chloro-3-nitro-5-sulfonylbenzotrifluoride (compound 2) and 4-chloro-3-nitro-5-carboxybenzotrifluoride (compound 3) were obtained from the Walter Reed Army Institute of Research inventory and were used without further purification. All of the agents were initially dissolved in dimethyl sulfoxide and were then diluted at 100 fold in parasitic culture medium before being tested against Leishmania species. […]

[1] = against Leishmania species, agents dissolved in dimethyl sulfoxide, diluted 100 fold in parasitic culture medium

Question: Which results are given for `O=[N+]([O-])c1cc(C(F)(F)F)cc([N+](=O)[O-])c1Cl` [compound 1, 4-chloro-3,5 dinitrobenzotrifluoride]?
Answer: IC50 (Leishmania): 0.89 µM; effectiveness compared with trifluralin (against Leishmania species): much more effective than trifluralin

Question: Which results are given for `O=[N+]([O-])C1=CC(C(F)(F)F)=CC(=S(=O)=O)C1Cl` (stereo not drawn) [compound 2, 4-chloro-3-nitro-5-sulfonylbenzotrifluoride]?
Answer: IC50 [1]: 6.1 µM; effectiveness compared with trifluralin (against Leishmania species): much more effective than trifluralin

Question: With `O=C(O)c1cc(C(F)(F)F)cc([N+](=O)[O-])c1Cl` [compound 3, 4-chloro-3-nitro-5-carboxybenzotrifluoride] as the compound, how does the IC50 [1] read?
Answer: 120 µM

Question: Which results are given for `O=[N+]([O-])c1cc(C(F)(F)F)ccc1Cl` [compound 4, 4-chloro-3-nitrobenzotrifluoride]?
Answer: IC50 [1]: 35 µM; effectiveness compared with trifluralin (against Leishmania species): much more effective than trifluralin

Question: Which IC50 [1] does the source give for `Nc1cc(C(F)(F)F)ccc1Cl` [compound 5, 3-amino-4-chlorobenzotrifluoride] here?
Answer: 77 µM

Question: Which IC50 [1] does the source give for `Nc1cc(C(F)(F)F)cc(C(F)(F)F)c1Br` [compound 6, 2-bromo-3,5-bis(trifluoromethyl)aniline] here?
Answer: 26 µM

Question: `COc1ccc(C(F)(F)F)cc1[N+](=O)[O-]` [compound 7, 4-methoxy-3-nitrobenzotrifluoride] was tested. Which IC50 [1] did it give?
Answer: 68 µM

Question: Which IC50 [1] does the source give for `O=[N+]([O-])c1cc(C(F)(F)F)ccc1S` [compound 8, 2-nitro-4-(trifluoromethyl)thiophenol] here?
Answer: 15 µM

Question: What about the “effectiveness compared with trifluralin” value (against Leishmania species) of the same compound?
Answer: much more effective than trifluralin
